In US20140194374A1, “Anthelmintic Formulations and Treatments” (VIRBAC, priority 2011, published 2014):

Tested on: ML resistant Cooperia strains
Conditions: doses ¼ to ⅓rd lower than the standard label dose (7.5 mg/kg)
Protocol: Individual faecal samples (for individual egg count and group larval culture) were collected as per protocol at 7 days intervals at Days 7, 14, 21, 28, 35, 42 and 49. […] Weighing was performed at the beginning, middle, and end of 49 day trial.

Compound: c1ccc([C@H]2CN3CCSC3=N2)cc1 [levamisole]
- Control of ML resistant Cooperia strains: 100%
